# Measurements reported in patent US8093387B2, “Process of making crystalline type II aripiprazole” (Synthon BV, priority 2005, dated 2012).
# Like-named read-outs stand apart in the source and are kept apart here.
# Columns and labels:
# [1] = as taught by WO 03/26659 (EP 1330249); cited from earlier work
# [2] = hygroscopicity of solid state forms of aripiprazole; format: physicochemical; conditions: crystalline Type II, not milled
SMILES,hygroscopicity [1],hygroscopicity [2]
"O=C1CCc2ccc(OCCCCN3CCN(c4cccc(Cl)c4Cl)CC3)cc2N1 [Type I aripiprazole, 7-[4-[4-(2,3-dichlorophenyl)-1-piperazinyl]butoxy]-3,4-dihydrocarbostyril]",significantly hygroscopic,–
"O=C1CCc2ccc(OCCCCN3CCN(c4cccc(Cl)c4Cl)CC3)cc2N1 [Type II aripiprazole, 7-[4-[4-(2,3-dichlorophenyl)-1-piperazinyl]butoxy]-3,4-dihydrocarbostyril]",–,not hygroscopic
